Measurements: patent US20250388565A1, “ESTROGEN RECEPTOR ALPHA DEGRADERS AND METHODS OF USE THEREOF” (Relay Therapeutics, Inc., priority 2022, published 2025)

What follows are molecules tested against T1, ERα protein (HiBiT-tagged) in ESR1_HiBiT KI MCF7 cells (Homo sapiens, UniProt P03372) (assay: Nano Glo HiBiT Lytic Degradation Assay). Details: 6 hours with compound, 14-point dose response 1:3, bell-shape curve fit, half-maximal effect of first Hill model, read-out: MCF7 ESR1 HiBiT - (DC50).
T1 sequence (P03372 1-595): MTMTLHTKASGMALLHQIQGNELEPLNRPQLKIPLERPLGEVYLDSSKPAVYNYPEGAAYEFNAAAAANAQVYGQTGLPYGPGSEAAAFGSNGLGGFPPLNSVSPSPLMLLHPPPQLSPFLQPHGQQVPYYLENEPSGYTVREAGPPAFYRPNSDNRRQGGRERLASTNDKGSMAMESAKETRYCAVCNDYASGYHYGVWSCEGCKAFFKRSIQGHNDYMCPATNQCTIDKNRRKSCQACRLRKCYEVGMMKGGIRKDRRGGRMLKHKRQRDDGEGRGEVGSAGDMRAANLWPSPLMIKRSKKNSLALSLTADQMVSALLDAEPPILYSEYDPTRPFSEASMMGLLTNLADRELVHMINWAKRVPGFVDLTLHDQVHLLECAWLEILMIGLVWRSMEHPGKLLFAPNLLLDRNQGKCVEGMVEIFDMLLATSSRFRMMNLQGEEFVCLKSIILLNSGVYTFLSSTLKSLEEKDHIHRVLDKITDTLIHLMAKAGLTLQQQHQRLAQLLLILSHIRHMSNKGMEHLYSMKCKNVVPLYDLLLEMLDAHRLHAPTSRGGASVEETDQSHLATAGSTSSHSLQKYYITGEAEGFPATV
Assay type: cell-based
Outline: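 HiBiT-tagged endogenous ERα remaining in MCF7 knock-in cells was quantified by lytic luminescence after a 6 h treatment. DC50 values derive from a bell-shaped curve, taken at the first Hill component's half-maximal effect.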

Row | Structure (SMILES) | DC50 [nM]
1 | O=C1CC[C@H](N2Cc3cc(N4CCN(CC5CCN(c6ccc([C@H]7c8ccc(O)cc8CC[C@H]7C7CCCCC7)cc6F)CC5)CC4)ccc3C2=O)C(=O)N1 [Compound I-236, (S)-3-(5-(4-((1-(4-((1S,2S)-2-cyclohexyl-6-hydroxy-1,2,3,4-tetrahydronaphthalen-1-yl)-2-fluorophenyl)piperidin-4-yl)methyl)piperazin-1-yl)-1-oxoisoindolin-2-yl)piperidine-2,6-dione] | 72
2 | C[C@@]1(C2CCCCC2)CCc2cc(O)ccc2[C@@H]1c1ccc(N2CCC(CN3CCN(c4ccc5c(c4)CN([C@H]4CCC(=O)NC4=O)C5=O)CC3)CC2)cc1 [Compound I-237, (S)-3-(5-(4-((1-(4-((1S,2S)-2-cyclohexyl-6-hydroxy-2-methyl-1,2,3,4-tetrahydronaphthalen-1-yl)phenyl)piperidin-4-yl)methyl)piperazin-1-yl)-1-oxoisoindolin-2-yl)piperidine-2,6-dione] | ≥ 10000
3 | C[C@]1(C2CCCCC2)CCc2cc(O)ccc2[C@H]1c1ccc(N2CCC(CN3CCN(c4ccc5c(c4)CN([C@H]4CCC(=O)NC4=O)C5=O)CC3)CC2)cc1 [Compound I-238, (S)-3-(5-(4-((1-(4-((1R,2R)-2-cyclohexyl-6-hydroxy-2-methyl-1,2,3,4-tetrahydronaphthalen-1-yl)phenyl)piperidin-4-yl)methyl)piperazin-1-yl)-1-oxoisoindolin-2-yl)piperidine-2,6-dione] | 4
4 | C[C@]1(C2CCCCC2)CCc2cc(O)ccc2[C@@H]1c1ccc(N2CCC(CN3CCN(c4ccc5c(c4)CN([C@H]4CCC(=O)NC4=O)C5=O)CC3)CC2)cc1 [Compound I-239, (S)-3-(5-(4-((1-(4-((1S,2R)-2-cyclohexyl-6-hydroxy-2-methyl-1,2,3,4-tetrahydronaphthalen-1-yl)phenyl)piperidin-4-yl)methyl)piperazin-1-yl)-1-oxoisoindolin-2-yl)piperidine-2,6-dione] | 1990
5 | C[C@@]1(C2CCCCC2)CCc2cc(O)ccc2[C@H]1c1ccc(N2CCC(CN3CCN(c4ccc5c(c4)CN([C@H]4CCC(=O)NC4=O)C5=O)CC3)CC2)cc1 [Compound I-240, (S)-3-(5-(4-((1-(4-((1R,2S)-2-cyclohexyl-6-hydroxy-2-methyl-1,2,3,4-tetrahydronaphthalen-1-yl)phenyl)piperidin-4-yl)methyl)piperazin-1-yl)-1-oxoisoindolin-2-yl)piperidine-2,6-dione] | 3
6 | O=C1CC[C@H](N2Cc3cc(N4CCN(CC5CCN(c6ccc([C@H]7c8ccc(O)cc8CC[C@H]7C78CC9CC(CC(C9)C7)C8)cc6)CC5)CC4)ccc3C2=O)C(=O)N1 [Compound I-241, (S)-3-(5-(4-((1-(4-((1S,2R)-2-((3S,5S,7S)-adamantan-1-yl)-6-hydroxy-1,2,3,4-tetrahydronaphthalen-1-yl)phenyl)piperidin-4-yl)methyl)piperazin-1-yl)-1-oxoisoindolin-2-yl)piperidine-2,6-dione] | 370
7 | O=C1CC[C@H](N2Cc3cc(N4CCN(CC5CCN(c6ccc([C@H]7c8ccc(O)cc8CO[C@H]7C7CCC7)cc6)CC5)CC4)ccc3C2=O)C(=O)N1 [Compound I-244, (S)-3-(5-(4-((1-(4-((3S,4S)-3-cyclobutyl-7-hydroxyisochroman-4-yl)phenyl)piperidin-4-yl)methyl)piperazin-1-yl)-1-oxoisoindolin-2-yl)piperidine-2,6-dione] | 4
8 | O=C1CC[C@H](N2Cc3cc(N4CCN(CC5CCN(c6ccc([C@@H]7c8ccc(O)cc8CO[C@@H]7C7CCC7)cc6)CC5)CC4)ccc3C2=O)C(=O)N1 [Compound I-245, (S)-3-(5-(4-((1-(4-((3R,4R)-3-cyclobutyl-7-hydroxyisochroman-4-yl)phenyl)piperidin-4-yl)methyl)piperazin-1-yl)-1-oxoisoindolin-2-yl)piperidine-2,6-dione] | 0.23
9 | O=C1CC[C@H](N2Cc3cc(N4CCN(CC5CCN(c6ccc([C@H]7c8ccc(O)cc8CO[C@@H]7C7CCCCC7)cc6)CC5)CC4)ccc3C2=O)C(=O)N1 [Compound I-248, (S)-3-(5-(4-((1-(4-((3R,4S)-3-cyclohexyl-7-hydroxyisochroman-4-yl)phenyl)piperidin-4-yl)methyl)piperazin-1-yl)-1-oxoisoindolin-2-yl)piperidine-2,6-dione] | 21
10 | O=C1CC[C@H](N2Cc3cc(N4CCN(CC5CCN(c6ccc([C@@H]7c8ccc(O)cc8CO[C@H]7C7CCCCC7)cc6)CC5)CC4)ccc3C2=O)C(=O)N1 [Compound I-249, (S)-3-(5-(4-((1-(4-((3S,4R)-3-cyclohexyl-7-hydroxyisochroman-4-yl)phenyl)piperidin-4-yl)methyl)piperazin-1-yl)-1-oxoisoindolin-2-yl)piperidine-2,6-dione] | 0.61
11 | O=C1CC[C@H](N2Cc3cc(N4CCN(CC5CCN(c6ccc([C@H]7c8ccc(O)cc8CO[C@H]7C7CCCCC7)cc6)CC5)CC4)ccc3C2=O)C(=O)N1 [Compound I-250, (S)-3-(5-(4-((1-(4-((3S,4S)-3-cyclohexyl-7-hydroxyisochroman-4-yl)phenyl)piperidin-4-yl)methyl)piperazin-1-yl)-1-oxoisoindolin-2-yl)piperidine-2,6-dione] | 64
12 | C[C@H]1O[C@@H](C2CCCCC2)[C@@H](c2ccc(N3CCC(CN4CCN(c5ccc6c(c5)CN([C@H]5CCC(=O)NC5=O)C6=O)CC4)CC3)cc2)c2ccc(O)cc21 [Compound I-251, (S)-3-(5-(4-((1-(4-((1R,3S,4S)-3-cyclohexyl-7-hydroxy-1-methylisochroman-4-yl)phenyl)piperidin-4-yl)methyl)piperazin-1-yl)-1-oxoisoindolin-2-yl)piperidine-2,6-dione] | 44
13 | C[C@]1(C2CCCCC2)OCc2cc(O)ccc2[C@@H]1c1ccc(N2CCC(CN3CCN(c4ccc5c(c4)CN([C@H]4CCC(=O)NC4=O)C5=O)CC3)CC2)cc1 [Compound I-257, (S)-3-(5-(4-((1-(4-((3R,4S)-3-cyclohexyl-7-hydroxy-3-methylisochroman-4-yl)phenyl)piperidin-4-yl)methyl)piperazin-1-yl)-1-oxoisoindolin-2-yl)piperidine-2,6-dione] | 3300
14 | C[C@@]1(C2CCCCC2)OCc2cc(O)ccc2[C@H]1c1ccc(N2CCC(CN3CCN(c4ccc5c(c4)CN([C@H]4CCC(=O)NC4=O)C5=O)CC3)CC2)cc1 [Compound I-258, (S)-3-(5-(4-((1-(4-((3S,4R)-3-cyclohexyl-7-hydroxy-3-methylisochroman-4-yl)phenyl)piperidin-4-yl)methyl)piperazin-1-yl)-1-oxoisoindolin-2-yl)piperidine-2,6-dione] | 1
15 | O=C1CC[C@H](N2Cc3cc(N4CCN(CC5CCN(c6ccc([C@H]7c8ccc(O)cc8CC[C@]78CCc7ccccc78)cc6)CC5)CC4)ccc3C2=O)C(=O)N1 [Compound I-259, (S)-3-(5-(4-((1-(4-((1R,1′R)-6′-hydroxy-2,3,3′,4′-tetrahydro-1′H-spiro[indene-1,2′-naphthalen]-1′-yl)phenyl)piperidin-4-yl)methyl)piperazin-1-yl)-1-oxoisoindolin-2-yl)piperidine-2,6-dione] | 98
16 | O=C1CC[C@H](N2Cc3cc(N4CCN(CC5CCN(c6ccc([C@@H]7c8ccc(O)cc8CC[C@@]78CCc7ccccc78)cc6)CC5)CC4)ccc3C2=O)C(=O)N1 [Compound I-260] | 0.75
